The source of these data is publication PMC9841527 (Journal of Medicinal Chemistry, 2022).

Assay [1] addresses T1, CamA (Clostridioides difficile, UniProt Q183J3).
T1 sequence (Q183J3 1-577): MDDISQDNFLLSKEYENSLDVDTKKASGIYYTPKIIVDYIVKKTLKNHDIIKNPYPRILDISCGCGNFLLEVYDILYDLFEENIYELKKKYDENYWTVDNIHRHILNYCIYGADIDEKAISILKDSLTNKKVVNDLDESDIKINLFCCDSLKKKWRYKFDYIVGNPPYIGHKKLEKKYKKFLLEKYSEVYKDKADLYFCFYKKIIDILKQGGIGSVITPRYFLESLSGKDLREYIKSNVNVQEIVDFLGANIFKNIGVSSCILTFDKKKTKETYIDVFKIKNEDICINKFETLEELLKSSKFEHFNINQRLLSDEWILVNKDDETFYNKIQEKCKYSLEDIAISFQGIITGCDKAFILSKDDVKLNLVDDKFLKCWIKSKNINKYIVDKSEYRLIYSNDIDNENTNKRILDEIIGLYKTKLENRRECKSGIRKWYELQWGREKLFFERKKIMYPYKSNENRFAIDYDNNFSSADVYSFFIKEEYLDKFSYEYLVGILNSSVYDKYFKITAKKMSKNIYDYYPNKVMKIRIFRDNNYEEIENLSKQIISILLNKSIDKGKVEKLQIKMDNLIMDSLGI
The assay is described as follows: Isothermal titration calorimetry. Type of assay: binding. (In general: ITC needs no label: the signal is the heat of the interaction.)

Assay [2] concerns the target T1, CamA. Format: biochemical.
Assay [3] has as its target T2, A1 adenosine receptor (A1AR) (Homo sapiens, UniProt P30542).
T2 sequence (P30542 1-326): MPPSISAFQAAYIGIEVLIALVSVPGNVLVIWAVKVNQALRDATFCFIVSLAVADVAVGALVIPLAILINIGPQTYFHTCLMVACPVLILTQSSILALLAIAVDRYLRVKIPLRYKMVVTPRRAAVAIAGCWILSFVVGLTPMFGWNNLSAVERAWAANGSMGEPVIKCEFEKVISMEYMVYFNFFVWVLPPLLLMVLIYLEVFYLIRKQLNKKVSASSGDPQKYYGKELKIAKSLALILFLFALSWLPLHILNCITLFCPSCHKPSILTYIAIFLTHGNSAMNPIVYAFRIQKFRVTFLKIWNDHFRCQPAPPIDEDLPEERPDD
The assay is described as follows: A1AR agonist radioligand binding assay. Particulars: compound 10 μM, [3H]CCPA 1 nM, transfected CHO cell membranes.

A further assay has as its target PRMT1 (Homo sapiens, UniProt Q99873). The assay is described as follows: Selectivity assay, PRMT1. Type of assay: biochemical. Particulars: compound 10 μM, 3H-SAM 1 μM.
A further assay has as its target DOT1L (Homo sapiens, UniProt Q8TEK3). In words: Selectivity assay, DOT1L. Type of assay: biochemical. Particulars: compound 10 μM, 3H-SAM 1 μM.
A further assay deals with T3, G9a (Homo sapiens, UniProt Q96KQ7).
T3 sequence (Q96KQ7 1-1210): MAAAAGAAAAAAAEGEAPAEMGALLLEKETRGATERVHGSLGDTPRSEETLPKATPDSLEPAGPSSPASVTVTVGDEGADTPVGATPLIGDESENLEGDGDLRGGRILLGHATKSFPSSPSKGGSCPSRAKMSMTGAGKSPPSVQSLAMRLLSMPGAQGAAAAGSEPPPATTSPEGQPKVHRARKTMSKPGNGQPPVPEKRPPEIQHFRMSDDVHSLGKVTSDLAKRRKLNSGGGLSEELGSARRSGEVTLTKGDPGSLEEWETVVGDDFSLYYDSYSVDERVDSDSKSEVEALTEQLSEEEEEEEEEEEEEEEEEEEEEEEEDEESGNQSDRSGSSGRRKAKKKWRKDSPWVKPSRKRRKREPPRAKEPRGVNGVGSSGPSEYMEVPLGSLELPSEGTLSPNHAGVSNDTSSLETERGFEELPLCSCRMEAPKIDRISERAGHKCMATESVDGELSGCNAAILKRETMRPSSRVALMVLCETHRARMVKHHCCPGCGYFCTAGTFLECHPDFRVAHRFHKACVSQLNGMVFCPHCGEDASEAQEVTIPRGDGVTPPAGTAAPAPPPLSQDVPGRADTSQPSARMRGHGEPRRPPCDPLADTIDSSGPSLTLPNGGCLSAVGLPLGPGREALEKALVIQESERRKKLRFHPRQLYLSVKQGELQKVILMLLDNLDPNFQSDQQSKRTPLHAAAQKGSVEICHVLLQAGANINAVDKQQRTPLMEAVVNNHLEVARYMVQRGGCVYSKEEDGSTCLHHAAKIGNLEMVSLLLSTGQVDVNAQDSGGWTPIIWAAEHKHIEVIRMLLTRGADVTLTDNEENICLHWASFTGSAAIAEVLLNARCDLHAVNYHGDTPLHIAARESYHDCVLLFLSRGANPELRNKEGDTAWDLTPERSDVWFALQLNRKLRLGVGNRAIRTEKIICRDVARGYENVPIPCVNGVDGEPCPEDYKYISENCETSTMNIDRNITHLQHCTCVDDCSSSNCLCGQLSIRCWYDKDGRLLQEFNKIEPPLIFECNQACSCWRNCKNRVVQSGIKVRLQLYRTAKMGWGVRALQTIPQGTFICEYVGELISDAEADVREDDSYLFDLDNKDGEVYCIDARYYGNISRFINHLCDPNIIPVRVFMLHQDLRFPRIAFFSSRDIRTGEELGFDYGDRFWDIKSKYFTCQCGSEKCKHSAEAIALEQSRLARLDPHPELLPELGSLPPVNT
In words: Selectivity assay, G9a. Type of assay: biochemical. Particulars: compound 10 μM, 3H-SAM 1 μM.

Another assay deals with MettL3-MettL14 (Homo sapiens, UniProt Q86U44). The assay is described as follows: Selectivity assay, MettL3-MettL14. Format: biochemical. Particulars: [I] = 10 μM, [SAM] = 20 μM, 5 mM NaCl, or CamA conditions.
Another assay has as its target PCIF1 (Homo sapiens, UniProt Q9H4Z3). Type of assay: biochemical.
A further assay deals with T4, Dam (Escherichia coli, UniProt P0AEE8).
T4 sequence (P0AEE8 1-278): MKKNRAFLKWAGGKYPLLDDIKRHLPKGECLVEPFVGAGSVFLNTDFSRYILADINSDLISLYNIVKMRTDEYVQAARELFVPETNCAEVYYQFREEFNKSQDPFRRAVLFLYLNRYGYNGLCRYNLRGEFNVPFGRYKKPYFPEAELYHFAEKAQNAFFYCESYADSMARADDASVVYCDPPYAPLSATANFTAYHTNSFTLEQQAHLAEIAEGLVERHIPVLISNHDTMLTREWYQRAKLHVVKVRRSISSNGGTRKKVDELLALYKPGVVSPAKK
Type of assay: biochemical.

The target of the next assay is CcrM (Caulobacter vibrioides, UniProt P0CAW2). Format: biochemical, Caulobacter crescentus.
Another assay has as its target Dnmt3a-Dnmt3L (Mus musculus, UniProt O88508). Type of assay: biochemical.

PCIF1, sequence (Q9H4Z3 whole entry): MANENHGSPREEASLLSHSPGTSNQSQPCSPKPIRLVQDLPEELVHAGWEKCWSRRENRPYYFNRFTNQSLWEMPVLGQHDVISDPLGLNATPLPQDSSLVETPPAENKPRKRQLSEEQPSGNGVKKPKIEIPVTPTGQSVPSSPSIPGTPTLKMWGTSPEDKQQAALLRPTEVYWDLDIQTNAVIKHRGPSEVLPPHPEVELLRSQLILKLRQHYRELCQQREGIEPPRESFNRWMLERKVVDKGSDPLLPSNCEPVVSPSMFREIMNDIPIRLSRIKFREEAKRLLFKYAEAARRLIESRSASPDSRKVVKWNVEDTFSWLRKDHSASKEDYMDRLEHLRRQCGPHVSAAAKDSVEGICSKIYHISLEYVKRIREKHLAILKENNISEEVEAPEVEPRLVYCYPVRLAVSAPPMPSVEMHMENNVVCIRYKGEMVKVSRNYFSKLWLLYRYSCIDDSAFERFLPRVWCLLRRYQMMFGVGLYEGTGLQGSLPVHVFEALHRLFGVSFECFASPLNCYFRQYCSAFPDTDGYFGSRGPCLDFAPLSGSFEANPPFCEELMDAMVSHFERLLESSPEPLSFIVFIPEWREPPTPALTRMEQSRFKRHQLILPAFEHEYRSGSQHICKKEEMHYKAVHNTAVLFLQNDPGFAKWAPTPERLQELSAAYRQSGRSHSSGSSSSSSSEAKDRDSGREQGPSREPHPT
PRMT1, sequence (Q99873 whole entry): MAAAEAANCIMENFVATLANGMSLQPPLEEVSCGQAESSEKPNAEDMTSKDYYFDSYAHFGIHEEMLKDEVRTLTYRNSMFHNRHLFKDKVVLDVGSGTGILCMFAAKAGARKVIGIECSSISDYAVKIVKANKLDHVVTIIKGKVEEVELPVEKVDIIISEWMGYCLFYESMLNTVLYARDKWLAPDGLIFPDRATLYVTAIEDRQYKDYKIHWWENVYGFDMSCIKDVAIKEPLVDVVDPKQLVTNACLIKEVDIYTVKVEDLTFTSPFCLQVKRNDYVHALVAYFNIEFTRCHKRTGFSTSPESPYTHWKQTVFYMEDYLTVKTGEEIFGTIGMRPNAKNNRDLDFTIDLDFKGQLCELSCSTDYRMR
DOT1L, sequence (Q8TEK3 whole entry): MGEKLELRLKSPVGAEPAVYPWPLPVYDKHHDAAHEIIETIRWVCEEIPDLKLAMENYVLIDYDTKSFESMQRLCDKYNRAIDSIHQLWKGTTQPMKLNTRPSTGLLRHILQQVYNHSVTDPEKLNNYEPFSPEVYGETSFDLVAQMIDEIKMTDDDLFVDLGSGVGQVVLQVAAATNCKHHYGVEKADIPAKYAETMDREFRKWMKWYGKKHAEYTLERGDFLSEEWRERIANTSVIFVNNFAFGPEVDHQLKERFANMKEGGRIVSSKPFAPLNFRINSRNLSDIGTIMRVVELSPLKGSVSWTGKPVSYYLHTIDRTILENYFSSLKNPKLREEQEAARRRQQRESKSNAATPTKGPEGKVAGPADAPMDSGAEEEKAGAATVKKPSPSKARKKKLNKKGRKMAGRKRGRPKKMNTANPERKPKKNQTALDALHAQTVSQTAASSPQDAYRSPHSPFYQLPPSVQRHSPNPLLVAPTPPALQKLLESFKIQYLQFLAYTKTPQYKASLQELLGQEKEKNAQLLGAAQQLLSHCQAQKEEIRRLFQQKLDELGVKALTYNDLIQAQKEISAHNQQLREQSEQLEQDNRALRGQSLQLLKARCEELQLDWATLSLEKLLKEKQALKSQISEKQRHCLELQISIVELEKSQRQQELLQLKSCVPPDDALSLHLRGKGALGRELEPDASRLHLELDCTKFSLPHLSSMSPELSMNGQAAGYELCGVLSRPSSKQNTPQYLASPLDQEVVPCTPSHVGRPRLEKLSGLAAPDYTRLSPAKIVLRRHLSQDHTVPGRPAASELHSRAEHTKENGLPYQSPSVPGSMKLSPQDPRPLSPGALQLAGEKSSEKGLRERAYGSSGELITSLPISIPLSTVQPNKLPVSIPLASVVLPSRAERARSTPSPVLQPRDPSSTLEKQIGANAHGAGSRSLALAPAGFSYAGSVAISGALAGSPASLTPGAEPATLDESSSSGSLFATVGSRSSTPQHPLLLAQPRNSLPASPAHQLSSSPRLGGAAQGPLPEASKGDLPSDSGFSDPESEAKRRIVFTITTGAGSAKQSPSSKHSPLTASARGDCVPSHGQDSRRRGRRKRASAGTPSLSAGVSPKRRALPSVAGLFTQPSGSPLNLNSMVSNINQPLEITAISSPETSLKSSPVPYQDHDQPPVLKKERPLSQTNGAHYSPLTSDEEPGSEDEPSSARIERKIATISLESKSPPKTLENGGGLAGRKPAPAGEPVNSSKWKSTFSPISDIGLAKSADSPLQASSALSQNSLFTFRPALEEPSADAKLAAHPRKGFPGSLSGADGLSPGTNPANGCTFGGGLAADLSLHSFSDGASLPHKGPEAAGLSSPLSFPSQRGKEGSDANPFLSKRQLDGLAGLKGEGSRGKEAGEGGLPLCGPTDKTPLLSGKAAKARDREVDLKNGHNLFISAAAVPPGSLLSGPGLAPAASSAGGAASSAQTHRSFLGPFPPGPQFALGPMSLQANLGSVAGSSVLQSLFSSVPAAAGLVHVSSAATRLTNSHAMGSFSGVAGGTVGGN
CcrM, sequence (P0CAW2 whole entry): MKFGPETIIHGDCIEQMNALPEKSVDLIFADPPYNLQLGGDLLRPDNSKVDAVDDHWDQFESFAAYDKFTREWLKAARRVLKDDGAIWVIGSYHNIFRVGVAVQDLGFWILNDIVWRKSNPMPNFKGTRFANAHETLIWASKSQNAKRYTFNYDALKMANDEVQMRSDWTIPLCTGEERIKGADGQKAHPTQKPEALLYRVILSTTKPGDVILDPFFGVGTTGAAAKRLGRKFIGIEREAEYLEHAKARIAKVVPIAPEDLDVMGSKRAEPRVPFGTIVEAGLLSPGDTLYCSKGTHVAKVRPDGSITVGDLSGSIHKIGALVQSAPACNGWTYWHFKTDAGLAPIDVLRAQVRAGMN
MettL3-MettL14, sequence (Q86U44 whole entry): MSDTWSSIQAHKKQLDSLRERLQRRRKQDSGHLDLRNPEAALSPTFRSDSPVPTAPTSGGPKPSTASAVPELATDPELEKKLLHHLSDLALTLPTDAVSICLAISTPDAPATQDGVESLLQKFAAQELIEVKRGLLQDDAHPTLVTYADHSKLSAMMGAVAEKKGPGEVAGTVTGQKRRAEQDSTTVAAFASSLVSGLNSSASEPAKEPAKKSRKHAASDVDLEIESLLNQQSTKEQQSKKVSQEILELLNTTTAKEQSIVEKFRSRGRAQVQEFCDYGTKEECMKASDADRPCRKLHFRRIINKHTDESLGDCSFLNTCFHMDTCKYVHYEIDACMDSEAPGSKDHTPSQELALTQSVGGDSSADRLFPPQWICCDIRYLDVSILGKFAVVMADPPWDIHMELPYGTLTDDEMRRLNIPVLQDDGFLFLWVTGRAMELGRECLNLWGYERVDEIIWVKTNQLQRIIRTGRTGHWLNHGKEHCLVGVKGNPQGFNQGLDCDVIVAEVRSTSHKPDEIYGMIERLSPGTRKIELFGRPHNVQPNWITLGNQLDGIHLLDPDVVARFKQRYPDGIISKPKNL
MettL3-MettL14, sequence (Q9HCE5 whole entry partner): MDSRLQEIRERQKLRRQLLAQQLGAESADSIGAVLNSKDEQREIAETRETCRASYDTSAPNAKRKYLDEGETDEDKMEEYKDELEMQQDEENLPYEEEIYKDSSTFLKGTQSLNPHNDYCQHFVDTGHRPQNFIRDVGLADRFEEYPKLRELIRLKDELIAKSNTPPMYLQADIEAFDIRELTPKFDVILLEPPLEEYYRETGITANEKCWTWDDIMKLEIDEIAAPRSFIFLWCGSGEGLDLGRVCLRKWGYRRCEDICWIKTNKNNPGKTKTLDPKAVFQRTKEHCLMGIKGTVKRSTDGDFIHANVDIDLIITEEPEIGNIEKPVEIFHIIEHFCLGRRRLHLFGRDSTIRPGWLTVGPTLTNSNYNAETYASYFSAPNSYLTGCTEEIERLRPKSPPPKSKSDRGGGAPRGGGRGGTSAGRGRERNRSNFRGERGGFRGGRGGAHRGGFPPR

For “5′-methylthioadenosine [MTA, reference compound]”, the “enhanced binding, fold” value on CamA [1] (compared to sinefungin) is roughly 2 ×. In addition, the “stronger binding, fold” value at CamA [1] (than adenosine) is reported as greater than 7 ×.
Regarding `OC[C@H]1O[C@@H](n2cnc3c(NCc4ccc(O)cc4)ncnc32)[C@H](O)[C@@H]1O` [Compound 3], at CamA [2], the “improved IC50, fold” value is listed as roughly 2 ×. At CamA [1] (compared to compound 2), the “tighter binding in KD, fold” value came to 2.6 ×.
As for `OC[C@H]1O[C@@H](n2cnc3c(NCCCc4ccccc4)ncnc32)[C@H](O)[C@@H]1O` [Compound 14, (2R,3S,4R,5R)-2-(Hydroxymethyl)-5-(6-((3-phenylpropyl)amino)-9H-purin-9-yl)tetrahydrofuran-3,4-diol], on CamA [2], the “lower IC50 value, fold” value was roughly 21 ×. For the same molecule, the “lower KD value, fold” value at CamA [1] (compared to compound 1) is reported as roughly 26 ×.
With `Nc1ccc(CCCNc2ncnc3c2ncn3[C@@H]2O[C@H](CO)[C@@H](O)[C@H]2O)cc1` [Compound 15, (2R,3R,4S,5R)-2-(6-((3-(4-Aminophenyl)propyl)amino)-9H-purin-9-yl)-5-(hydroxymethyl)tetrahydrofuran-3,4-diol], the “enhanced binding, fold” value on CamA [1] (compared to 2 and 9) is 9–12 ×.
Consider `OC[C@H]1O[C@@H](n2cnc3c(NCCCCCCc4ccccc4)ncnc32)[C@H](O)[C@@H]1O` [Compound 21, (2R,3S,4R,5R)-2-(Hydroxymethyl)-5-(6-((6-phenylhexyl)amino)-9H-purin-9-yl)tetrahydrofuran-3,4-diol], for which, at CamA [2], the “relative inhibition of CamA activity” value is listed as “decreased the inhibition potency”.
Consider `CC(C)(C)OC(=O)NCCC1CCN(c2ncnc3c2ncn3[C@@H]2O[C@H](CO)[C@@H](O)[C@H]2O)CC1` [Compound 40, tert-Butyl-(2-(1-(9-((2R,3R,4S,5R)-3,4-dihydroxy-5-(hydroxymethyl)tetrahydrofuran-2-yl)-9H-purin-6-yl)piperidin-4-yl)ethyl)carbamate], for which, on CamA [2], the CamA inhibition result is “loss of inhibition” and the “relative inhibition of CamA activity” value is given as “loss of inhibition”.
`CC(C)(C)OC(=O)N1CCC2(CCN(c3ncnc4c3ncn4[C@@H]3O[C@H](CO)[C@@H](O)[C@H]3O)CC2)C1` [Compound 41, tert-Butyl-8-(9-((2R,3R,4S,5R)-3,4-dihydroxy-5-(hydroxymethyl)tetrahydrofuran-2-yl)-9H-purin-6-yl)-2,8-diazaspiro[4.5]decane-2-carboxylate]: on CamA [2], the CamA inhibition entry was “loss of inhibition” and the “relative inhibition of CamA activity” value is “loss of inhibition”.
As for `OC[C@H]1O[C@@H](n2cnc3c(NCCCC4CCNCC4)ncnc32)[C@H](O)[C@@H]1O` [Compound 42, (2R,3S,4R,5R)-2-(Hydroxymethyl)-5-(6-((3-(piperidin-4-yl)propyl)amino)-9H-purin-9-yl)tetrahydrofuran-3,4-diol], on CamA [2], the “lower potency in inhibiting CamA, fold” value is roughly 10 fold.
With `OC[C@H]1O[C@@H](n2cnc3c(NC4CCCC4)ncnc32)[C@H](O)[C@@H]1O` [N^6-cyclopentyladenosine, reference compound], in assay [3], the “inhibition of control radioligand specific binding, A1AR” value is “completely abolished radioligand binding”.
Consider `Nc1ncnc2c1ncn2[C@@H]1O[C@H](CSCC[C@H](N)C(=O)O)[C@@H](O)[C@H]1O` [SAH, S-adenosyl-L-homocysteine, reference compound], for which the “inhibition of PRMT1” value at PRMT1 is on record as “exhibited measurable inhibition”. For the same molecule, on DOT1L, the “inhibition of DOT1L” value is listed as “exhibited measurable inhibition”. Moreover, the “inhibition of G9a” value at G9a was “exhibited measurable inhibition”.
As for `CC(C)N(CCCNC(=O)Nc1ccc(C(C)(C)C)cc1)C[C@H]1O[C@@H](n2cc(Br)c3c(N)ncnc32)[C@H](O)[C@@H]1O` [SGC0946, reference compound], on CamA [2], the “inhibition of CamA activity” value was “inhibits CamA activity completely” and the “stronger inhibition, fold in IC50” value was roughly 9 ×. The “improved binding, fold in KD” value at CamA [1] (vs EPZ004777) is on record as roughly 3 ×.
With `O=C(NCc1cn2cc(CNCC3CCCCC3)ccc2n1)c1cc(=O)n2ccccc2n1` [STM2457, reference compound], the “effect on CamA activity” value at CamA [2] is reported as “had no effect on CamA activity”. The “inhibition of MettL3-MettL14” value on MettL3-MettL14 is on record as “inhibited”.
For `Nc1ncnc2c1ncn2[C@@H]1O[C@H](C[C@@H](N)CC[C@H](N)C(=O)O)[C@@H](O)[C@H]1O` [sinefungin, reference compound], the “effect on CamA activity” value at CamA [2] is “inhibiting CamA”. For the same molecule, the “inhibition of PCIF1” value at PCIF1 is recorded as “showed measurable inhibition”. In addition, the “inhibition of Dam” value against Dam was “showed measurable inhibition”. Besides, the “inhibition of CcrM” value at CcrM is “showed measurable inhibition”. For the same molecule, the “inhibition of Dnmt3a-Dnmt3L” value against Dnmt3a-Dnmt3L is reported as “showed measurable inhibition”.
